In series [1] the test system is adult worker honeybees, Apis mellifera L. The conditions noted are these: contact. From the text: In accordance with OECD Test Guidelines No. 213 and 214, the test is considered valid if: (1) the average mortality of the control groups is ≤10% at the end of the test; and the average, control-corrected mortality of the reference item groups is ≥50% at the end of the test, at the tested dose (internal validity criteria according to POS BT200).
Young Apis mellifera L. worker honeybees are randomly collected in the morning of use or the day before from an adequately fed, healthy diseases-free and queen right beehive, not treated with chemical substances. Hives from an established apiary colony are used, and the colonies are inspected periodically, according to standard bee-keeping practices. All colonies are kept outside under field conditions and bees collect food from the environment. The last treatment against Varroa mites was done in November 2023. The bees are fed ad libitum with a water sucrose solution 50% w/v (or 500 g/L), prepared with tap water.
Adult worker honeybees are exposed to three increasing doses of the test item (see Table 2) by direct application to the thorax (droplets, see section 4.5.2). One control group is treated with propanol-water solution (ratio 80%-20%) in addition to test item groups.
Bee mortality is recorded after 4, 24 and 48 hours, and compared with the control value. If the mortality rate increases by more than 10% between 24 and 48 hours, whilst the control mortality rate remains ≤10%, the is extended to a maximum of 96 hours.
The test item is diluted in propanol-water solution (ratio 80%-20%) to prepare the contact solutions.
The bees used for the contact test are anaesthetized with carbon dioxide and individually treated by topical application of 2 μL of the test solutions onto the thorax using a micro applicator. The honeybees are then be moved to the cages and fed ad libitum with sucrose solution.
Disposable and well-ventilated cages with an internal volume not lower than 200 cm^3 are used. Each cage is equipped with a transparent lid, for a suitable observation of the bees from outside. The upper side of the cage has at least one hole for inserting the feeder: a syringe filled of 50% (w/v) aqueous sucrose solution is inserted in one hole.
The tests are conducted under the following conditions: (a) Temperature: 25.00[…]; (b) Relative humidity: 60.00[…], The honeybees are kept under constant darkness except during the assessments. Throughout the experimental phase, the temperature and relative humidity is continuously recorded with a dedicated data-logger with sensors located close to the test units.
The number of dead honeybees per cage is recorded after 4, 24 and 48 hours. If a prolonged observation period is required, further assessments are made every 24 hours, tip to a maximum duration of 96 hours. The amount of diet consumed per group is quantitatively estimated if treated diet will be left after 6 hours of exposure.
Data is summarized in tabular form, showing the number of live, dead and abnormal bees per experimental group. The mortality of each replicate is calculated as a percentage, comparing the number of dead bees to those introduced at the beginning. The mean value of the treated group is compared to the mean mortality of the respective control group(s) using the Abbott's formula modified by Schneider-Orelli (POS BT 200): […]

A short description of series [2]: Plasma concentration analysis in topically treated chickens. Particulars: Compound of Example 1 treatment, topical spray 7.5 mg/kg once daily. The method, then:
To explore the therapeutic potential of the compounds of the present disclosure, live chickens with mite infestation (Dermanyssus gallinae) are treated topically with solutions of test compound, with Fipronil as a positive control. Test solutions are prepared by dissolving the test compound in a mixture of 2-butoxyethanol, ethanol, and water (7:2:1) to reach a final concentration of 0.25% (w/v).
The test solution is administered using a mechanical spray pump delivering 0.5 mL of solution per actuation. The test solution is sprayed over the entire surface of the animal's body from a distance of 10-20 centimeters, resulting in direct contact of the solution with the animal's skin. The dosage applied to each animal is 3 mL/kg, equivalent to 7.5 mg/kg (kg live weight). The dosage is achieved using six actuations of the spray per kg of body weight per day. The treatment is administered once daily for 5 days at 24 hours intervals. One animal is left untreated as a negative control.
Blood samples are taken from each animal before the first treatment (T=0), and at 24-hour intervals thereafter. Each egg produced after a treatment is collected for later analysis.
Plasma samples are derived from each blood sample using standard procedures immediately after blood collection. Plasma is stored frozen at −80° C. until the time of analysis. Samples are then thawed at room temperature and extraction is performed by solid phase extraction (SPE) (Strata-X 33. Polymeric Reversed Phase, 60 mg/3 mL, Phenomenex) on an aliquot of sample (100 μl) pretreated for protein precipitation with 300 μl of acetonitrile. After protein precipitation, the samples are well vortexed and then centrifuged (12000 rpm, 10 min, RT). Supernatant is collected and transferred to clean Falcon tubes and diluted with 3 ml of water. Strata-X columns are conditioned with 2 ml of methanol and with 2 ml of water. Samples are loaded after conditioning, and the columns are washed with 2 ml of water, and analytes are eluted with 2 nil of methanol, dried under nitrogen and then resuspended in 100 μl of acetonitrile for mass spectral analysis.
A Thermo Q-exactive mass spectrometer (Thermo Fisher Scientific, Waltham, MA) is used. The LC system, governed by Chromeleon X-press software, consists of a binary pump, a thermostated autosampler, and a column compartment, all Dionex Ultimate 3000 series modules (Thermo Fisher Scientific, Waltham, MA). A volume of 2 μL is injected for each sample. Chromatographic separation of analytes is conducted in reverse-phase chromatography. A Luna Omega 1.6 μm Polar (CIS, 2.1 mm×100 mm) is used, and the mobile phases are (A) water and (B) acetonitrile, both containing 0.1% v/v formic acid. […]
Plasma samples from Day 3 and Day 5 are analyzed.

Here are results for 1 molecule from patent US12419308B2, “Phenylpyrazole insecticide compounds and compositions” (priority 2023, dated 2025).

The structures appear in SMILES notation. Read-outs that look alike come from different tables or passages of the source.

`N#Cc1nn(-c2c(Cl)cc(C(F)(F)F)cc2Cl)c2nc(O)cc(C(F)(F)F)c12` [Example 1, 1-(2,6-dichloro-4-(trifluoromethyl)phenyl)-6-hydroxy-4-(trifluoromethyl)-1H-pyrazolo[3,4-b]pyridine-3-carbonitrile]: the “% CM (4 hours)” value in series [1] (group T1, dose 0.002 μg/bee) worked out at 0.0%; in series [1] (group T2, dose 0.004 μg/bee) it was 0.0%; in series [1] (group T3, dose 0.006 μg/bee), 0.0%. Besides, the “% CM (24 hours)” value is listed as 7.1% in series [1] (group T1, dose 0.002 μg/bee); 0.0% in series [1] (group T2, dose 0.004 μg/bee); 50.0% in series [1] (group T3, dose 0.006 μg/bee). Further, the “% CM (48 hours)” value in series [1] (group T1, dose 0.002 μg/bee) came out at 0.0%; in series [1] (group T2, dose 0.004 μg/bee), 0.0%; in series [1] (group T3, dose 0.006 μg/bee), 57.7%. Further, the “Plasma concentration of analyte” value in series [2] (Chicken 3, 3 days) was 0.01 ppm; in series [2] (Chicken 3, 5 days), 0.03 ppm; in series [2] (Chicken 4, 3 days), 0.7 ppm; in series [2] (Chicken 4, 5 days), 1.2 ppm.
